Measured values from US20250163038A1, “CBL-B MODULATORS AND USES THEREOF” (Nimbus Clio, Inc., priority 2021, published 2025).

molecular target: T1, Recombinant human c-Cbl (aa 47-435) (Homo sapiens, UniProt P22681); test: c-Cbl Biochemical Assay (TR-FRET); settings: hc-Cbl Biochemical Assay (TR-FRET); read-out: TR-FRET hcCbl IC50
T1 sequence (P22681 47-435): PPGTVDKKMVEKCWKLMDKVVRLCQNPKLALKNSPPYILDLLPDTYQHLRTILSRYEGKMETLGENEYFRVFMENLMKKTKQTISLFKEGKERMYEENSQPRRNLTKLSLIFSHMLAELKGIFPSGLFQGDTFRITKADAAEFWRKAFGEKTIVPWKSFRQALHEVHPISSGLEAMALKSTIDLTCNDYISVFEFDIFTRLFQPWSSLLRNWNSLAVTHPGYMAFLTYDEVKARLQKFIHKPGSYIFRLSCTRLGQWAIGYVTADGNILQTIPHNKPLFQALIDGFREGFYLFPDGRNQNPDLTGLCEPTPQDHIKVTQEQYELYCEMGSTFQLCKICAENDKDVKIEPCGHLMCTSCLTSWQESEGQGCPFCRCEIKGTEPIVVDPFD

Structure (SMILES) | IC50 [µM]
CCNc1cc(-c2c(-c3nncn3C)cnn2C)cc(-c2nc3cc(CN4CCC5(CC5)C4)cc(C(F)(F)F)c3[nH]2)n1 [AAM-2, 6-(6-{5-Azaspiro[2.4]heptan-5-ylmethyl}-4-(trifluoromethyl)-3H-1,3-benzodiazol-2-yl)-N-ethyl-4-[2-methyl-4-(4-methyl-1,2,4-triazol-3-yl)pyrazol-3-yl]pyridin-2-amine] | 10 to 50
CCNc1cc(-c2c(-c3nncn3C)cnn2C)cc(-c2nc3cccc(C(F)(F)F)c3s2)n1 [ACU-2, N-Ethyl-4-[2-methyl-4-(4-methyl-1,2,4-triazol-3-yl)-pyrazol-3-yl]-6-[7-(trifluoromethyl)-1,3-benzothiazol-2-yl]-pyridin-2-amine] | 10 to 50
Cn1cnnc1-c1ccccc1-c1cccc(-c2nc3cccc(C(F)(F)F)n3n2)c1 [ABU-2, 2-(2′-(4-Methyl-4H-1,2,4-triazol-3-yl)-[1,1′-biphenyl]-3-yl)-5-(trifluoromethyl)-[1,2,4]triazolo[1,5-a]pyridine] | 10 to 50
C[C@@H]1CCCN(Cc2cc(C(F)(F)F)c3[nH]c(-c4cccc(-c5ccccc5-c5nncn5C)c4)nc3c2)C1 [AAJ-1, 2-[2′-(4-Methyl-1,2,4-triazol-3-yl)-[1,1′-biphenyl]-3-yl]-6-{[(3R)-3-methylpiperidin-1-yl]methyl}-4-(trifluoromethyl)-3H-1,3-benzodiazole] | 10 to 50
Cn1cnnc1-c1ccccc1-c1cccc(-c2nc3ccc(OCCN4CCCC4)c(C(F)(F)F)c3[nH]2)c1 [BG-1, 2-(2′-(4-Methyl-4H-1,2,4-triazol-3-yl)-[1,1′-biphenyl]-3-yl)-6-(2-(pyrrolidine-1-yl)ethoxy)-7-(trifluoromethyl)-1H-benzo[d]imidazole] | 10 to 50
Cn1cnnc1CC1(c2cccc(-c3nc4cc(OCCN5CCCC5)cc(C(F)(F)F)c4[nH]3)c2)COC1 [ACJ-5, 2-(3-(3-((4-Methyl-4H-1,2,4-triazol-3-yl)methyl)oxetan-3-yl)phenyl)-5-(2-(pyrrolidin-1-yl)ethoxy)-7-(trifluoromethyl)-1H-benzo[d]imidazole] | 10 to 50
N#CC1(CN)CCCC1 [AHN-1] | < 0.2

molecular target: Recombinant human Cbl-b (aa 36-427) (Homo sapiens, UniProt Q13191); test: Cbl-b Biochemical Assay (TR-FRET); settings: read-out: TR-FRET hCbl-b IC50
Sequence (Q13191 36-427): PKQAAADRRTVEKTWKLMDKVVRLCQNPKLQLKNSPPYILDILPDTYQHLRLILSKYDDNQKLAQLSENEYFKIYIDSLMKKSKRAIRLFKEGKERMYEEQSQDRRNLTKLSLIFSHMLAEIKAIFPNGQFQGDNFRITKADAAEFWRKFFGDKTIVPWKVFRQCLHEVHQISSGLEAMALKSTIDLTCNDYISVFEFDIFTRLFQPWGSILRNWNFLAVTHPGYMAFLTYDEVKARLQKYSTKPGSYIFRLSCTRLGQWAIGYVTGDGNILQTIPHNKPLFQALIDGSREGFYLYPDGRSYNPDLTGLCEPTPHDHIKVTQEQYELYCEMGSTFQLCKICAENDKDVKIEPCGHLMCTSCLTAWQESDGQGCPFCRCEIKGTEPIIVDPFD

Structure (SMILES) | IC50 [µM]
CCNc1cc(-c2c(-c3nncn3C)cnn2C)cc(-c2nc3cc(CN4CCC5(CC5)C4)cc(C(F)(F)F)c3[nH]2)n1 [AAM-2, 6-(6-{5-Azaspiro[2.4]heptan-5-ylmethyl}-4-(trifluoromethyl)-3H-1,3-benzodiazol-2-yl)-N-ethyl-4-[2-methyl-4-(4-methyl-1,2,4-triazol-3-yl)pyrazol-3-yl]pyridin-2-amine] | 1 to 10
CCNc1cc(-c2c(-c3nncn3C)cnn2C)cc(-c2nc3cccc(C(F)(F)F)c3s2)n1 [ACU-2, N-Ethyl-4-[2-methyl-4-(4-methyl-1,2,4-triazol-3-yl)-pyrazol-3-yl]-6-[7-(trifluoromethyl)-1,3-benzothiazol-2-yl]-pyridin-2-amine] | 10 to 50
Cn1cnnc1-c1ccccc1-c1cccc(-c2nc3cccc(C(F)(F)F)n3n2)c1 [ABU-2, 2-(2′-(4-Methyl-4H-1,2,4-triazol-3-yl)-[1,1′-biphenyl]-3-yl)-5-(trifluoromethyl)-[1,2,4]triazolo[1,5-a]pyridine] | 10 to 50
C[C@@H]1CCCN(Cc2cc(C(F)(F)F)c3[nH]c(-c4cccc(-c5ccccc5-c5nncn5C)c4)nc3c2)C1 [AAJ-1, 2-[2′-(4-Methyl-1,2,4-triazol-3-yl)-[1,1′-biphenyl]-3-yl]-6-{[(3R)-3-methylpiperidin-1-yl]methyl}-4-(trifluoromethyl)-3H-1,3-benzodiazole] | 1 to 10
Cn1cnnc1-c1ccccc1-c1cccc(-c2nc3ccc(OCCN4CCCC4)c(C(F)(F)F)c3[nH]2)c1 [BG-1, 2-(2′-(4-Methyl-4H-1,2,4-triazol-3-yl)-[1,1′-biphenyl]-3-yl)-6-(2-(pyrrolidine-1-yl)ethoxy)-7-(trifluoromethyl)-1H-benzo[d]imidazole] | 10 to 50
Cn1cnnc1CC1(c2cccc(-c3nc4cccc(Cl)c4[nH]3)c2)COC1 [ABM-2, 7-Chloro-2-(3-(3-((4-methyl-4H-1,2,4-triazol-3-yl)methyl)oxetan-3-yl)phenyl)-1H-benzo[d]imidazole] | 10 to 50
Cn1cnnc1CC1(c2cccc(-c3nc4cc(OCCN5CCCC5)cc(C(F)(F)F)c4[nH]3)c2)COC1 [ACJ-5, 2-(3-(3-((4-Methyl-4H-1,2,4-triazol-3-yl)methyl)oxetan-3-yl)phenyl)-5-(2-(pyrrolidin-1-yl)ethoxy)-7-(trifluoromethyl)-1H-benzo[d]imidazole] | 10 to 50
Cn1cnnc1-c1cc(F)ccc1-c1cccc(-c2nc3ccccc3[nH]2)c1 [CA-2, 2-(4′-Fluoro-2′-(4-methyl-4H-1,2,4-triazol-3-yl)-[1,1′-biphenyl]-3-yl)-1H-benzo[d]imidazole] | 10 to 50
Cn1cnnc1-c1ccccc1-c1cccc(-c2cc(C(F)(F)F)c(C(=O)O)[nH]c2=O)c1 [CH-3, 5-(2′-(4-methyl-4H-1,2,4-triazol-3-yl)-[1,1′-biphenyl]-3-yl)-6-oxo-3-(trifluoromethyl)-1,6-dihydropyridine-2-carboxylic Acid] | 10 to 50
Cn1cnnc1CC1(c2cccc(-c3nc4c(C(F)(F)F)cccc4s3)c2)COC1 [ABF-4, 2-(3-[3-[(4-Methyl-1,2,4-triazol-3-yl)methyl]oxetan-3-yl]phenyl)-4-(trifluoromethyl)-1,3-benzothiazole] | 10 to 50
Cn1cnnc1CC1(c2cccc(-c3cc(C(F)(F)F)cn(CCN4CC(O)C4)c3=O)c2)COC1 [ACH-5, 1-(2-(3-Hydroxyazetidin-1-yl)ethyl)-3-(3-(3-((4-methyl-4H-1,2,4-triazol-3-yl)methyl)oxetan-3-yl)phenyl)-5-(trifluoromethyl) pyridin-2(1H)-one] | 10 to 50
Cn1cnnc1-c1cnn(C)c1-c1cccc(-c2nc3cccc(C(F)(F)F)n3n2)c1 [ABN-2, 4-Methyl-3-(1-methyl-5-{3-[5-(trifluoromethyl)-[1,2,4]triazolo[1,5-a]pyridin-2-yl]phenyl}pyrazol-4-yl)-1,2,4-triazole] | 10 to 50
CCNc1cc(-c2ccccc2-c2nncn2C)cc(-c2nc3cccc(C(F)(F)F)c3o2)n1 [AS-12, N-ethyl-4-(2-(4-methyl-4H-1,2,4-triazol-3-yl)phenyl)-6-(7-(trifluoromethyl)benzo[d]oxazol-2-yl)pyridin-2-amine] | 10 to 50
Cn1cnnc1CC1(c2cccc(-c3nc4cc(Br)cc(C(F)(F)F)c4[nH]3)c2)COC1 [ABE-2, 5-Bromo-2-(3-(3-((4-methyl-4H-1,2,4-triazol-3-yl)methyl)oxetan-3-yl)phenyl)-7-(trifluoromethyl)-1H-benzo[d]imidazole] | 10 to 50
Cn1cnnc1CC1(c2cccc(-c3nc4cccc(OC(F)(F)F)c4[nH]3)c2)COC1 [ABQ-2, 2-(3-(3-((4-Methyl-4H-1,2,4-triazol-3-yl)methyl)oxetan-3-yl)phenyl)-7-(trifluoromethoxy)-1H-benzo[d]imidazole] | 10 to 50
Cn1cnnc1-c1ccccc1-c1cccc(-c2nc3cc(C(=O)N4CCC5(CC5)C4)cc(C(F)(F)F)c3[nH]2)c1 [ACE-1, (2-(2′-(4-Methyl-4H-1,2,4-triazol-3-yl)-[1,1′-biphenyl]-3-yl)-7-(trifluoromethyl)-1H-benzo[d]imidazol-5-yl)(5-azaspiro[2.4]heptan-5-yl)methanone] | 10 to 50
Cn1cnnc1-c1ccccc1-c1cccc(-c2nc3ccc(Br)c(C(F)(F)F)c3[nH]2)c1 [BB-1, 6-Bromo-2-(2′-(4-methyl-4H-1,2,4-triazol-3-yl)-[1,1′-biphenyl]-3-yl)-7-(trifluoromethyl)-1H-benzo[d]imidazole] | 10 to 50
Cn1cnnc1CC1(c2cccc(-c3cc4cccc(C(F)(F)F)c4[nH]3)c2)COC1 [ACP-4, 2-(3-(3-((4-Methyl-4H-1,2,4-triazol-3-yl)methyl)oxetan-3-yl)phenyl)-7-(trifluoromethyl)-1H-indole] | 10 to 50
CCNc1cc(-c2c(-c3nncn3C)cnn2C)cc(-c2nc3ccc(C)c(C(F)(F)F)c3[nH]2)n1 [ACV-5, N-Ethyl-4-(1-methyl-4-(4-methyl-4H-1,2,4-triazol-3-yl)-1H-pyrazol-5-yl)-6-(6-methyl-7-(trifluoromethyl)-1H-benzo[d]imidazol-2-yl) pyridin-2-amine] | 10 to 50
Cn1cnnc1-c1ccccc1-c1cccc(-c2nc3cccc(C(F)(F)F)c3[nH]2)c1 [ABW-1, 2-(2′-(4-Methyl-4H-1,2,4-triazol-3-yl)-[1,1′-biphenyl]-3-yl)-7-(trifluoromethyl)-1H-benzo[d]imidazole] | 10 to 50
Cn1cnnc1-c1ccccc1-c1cccc(-c2nc3ccc(F)c(C(F)(F)F)c3[nH]2)c1 [BC-1, 6-Fluoro-2-(2′-(4-methyl-4H-1,2,4-triazol-3-yl)-[1,1′-biphenyl]-3-yl)-7-(trifluoromethyl)-1H-benzo[d]imidazole] | 10 to 50
Cn1cnnc1CCc1cccc(-c2nc3cccc(C(F)(F)F)n3n2)c1 [ABI-7, 2-(3-(2-(4-Methyl-4H-1,2,4-triazol-3-yl)ethyl)phenyl)-5-(trifluoromethyl)-[1,2,4]triazolo[1,5-a]pyridine] | 10 to 50
Cn1cnnc1CC1(c2cccc(-c3nc4cccc(Br)c4[nH]3)c2)COC1 [ABP-2, 4-Bromo-2-(3-[3-[(4-methyl-1,2,4-triazol-3-yl)methyl]oxetan-3-yl]phenyl)-1H-1,3-benzodiazole] | 10 to 50
Cn1cnnc1CC1(c2cccc(-c3nc4cc(C(=O)Nc5nccn5C)cc(C(F)(F)F)c4[nH]3)c2)COC1 [ABZ-2, N-(1-Methyl-1H-imidazol-2-yl)-2-(3-(3-((4-methyl-4H-1,2,4-triazol-3-yl)methyl)oxetan-3-yl)phenyl)-7-(trifluoromethyl)-1H-benzo[d]imidazole-5-carboxamide] | 10 to 50
Cn1cnnc1CC1(c2cccc(-c3nc4cccc(C5CC5)c4[nH]3)c2)COC1 [ABG-3, 7-Cyclopropyl-2-(3-(3-((4-methyl-4H-1,2,4-triazol-3-yl)methyl)oxetan-3-yl)phenyl)-1H-benzo[d]imidazole] | 10 to 50
CCNc1cc(-c2c(-c3nncn3C)cnn2C)cc(-c2nc3cccc(C(F)(F)F)c3o2)n1 [ACW-2, N-Ethyl-4-(1-methyl-4-(4-methyl-4H-1,2,4-triazol-3-yl)-1H-pyrazol-5-yl)-6-(7-(trifluoromethyl)benzo[d]oxazol-2-yl)pyridin-2-amine] | 10 to 50
CCNc1cc(-c2c(-c3nncn3C)cnn2C)cc(-c2nc3ccc(Br)c(C(F)(F)F)c3[nH]2)n1 [ACT-3, 6-(6-Bromo-7-(trifluoromethyl)-1H-benzo[d]imidazol-2-yl)-N-ethyl-4-(1-methyl-4-(4-methyl-4H-1,2,4-triazol-3-yl)-1H-pyrazol-5-yl) pyridin-2-amine] | 10 to 50
CN1CCC(C(=O)Nc2ccc3nc(-c4cccc(-c5ccccc5-c5nncn5C)c4)[nH]c3c2C(F)(F)F)CC1 [BF-3, 1-Methyl-N-(2-(2′-(4-methyl-4H-1,2,4-triazol-3-yl)-[1,1′-biphenyl]-3-yl)-7-(trifluoromethyl)-1H-benzo[d]imidazol-6-yl)piperidine-4-carboxamide, Formic Acid] | 10 to 50
Cn1cnnc1-c1ccccc1-c1cccc(-c2cc(C(F)(F)F)cn(C)c2=O)c1 [CG-4, 1-Methyl-3-(2′-(4-methyl-4H-1,2,4-triazol-3-yl)-[1,1′-biphenyl]-3-yl)-5-(trifluoromethyl)pyridin-2(1H)-one] | 10 to 50
